Results: patent publication US20060205692A1, “1,1-and 1,2-Bisphosphonates as apoliprotein e modulators” (priority 2002, published 2006)

System: ApoE
Test: apoE secretion by PMA-differentiated THP-1 cells, apoE quantified by ELISA
Type: cell-based, human
Conditions: 3 days; for percent change in apoE secretion versus control at 25 µM / percent change in apoE secretion versus control at 50 µM / percent change in apoE secretion versus control at 100 µM: Homo sapiens, THP-1, 72 h
Excerpt: The bisphosphonate compounds of the invention can modulate (increase or decrease) apoE levels in plasma and in tissues. The activities of the compounds can be determined in an in vitro cell assay comprising determining the modulatory effect of the test compound on the secretion of apoE by an apoE secreting cell line (e.g., a monocyte-macrophage cell line such as the THP-1 cell line, a liver derived cell line such as the HepG2 cell line, an intestinal derived cell line such as the CaCo2 cell line or a brain derived cell line such as the astrocytoma CCF-STTG1 cell line).
THP-1 cell line (ATCC TIB-202) are cultured in RPMI 1640 (with 2 mM of L-glutamine and 2 g/l of glucose, Invitrogen) supplemented with 2 g/l of sodium hydrogen carbonate (Fluka), 10 U/ml of penicillin, 10 μg/ml of streptomycin (Penicillin-Streptomycin, Invitrogen), 20 μM of 2-mercaptoethanol (Fluka) and 10% FCS (Amimed). Cells are incubated at 37° C. and 5% CO2.
Cells are seeded in 24 well tissue culture plates (Falcon), 2×10^5 cells in 500 μl of culture medium per well or 6 well plates for RT-PCR purpose, 1×10^6 cells in 2.5 ml of medium. PMA (Phorbol 12-myristate 13-acetate, Alexis), (stock in DMSO (Fluka) at 1 mg/ml) and other compounds are diluted in ethanol and added to the cells at an ethanol final concentration not exceeding 1%. Same volume of ethanol is added in controls. Plates are incubated for 3 days at 37° C. and 5% CO2 to allow cell differentiation and apoE secretion.
Medium contained in the wells is harvested and centrifuged 5 min at 1200 rpm. Supernatants are store at −20° C. until apoE quantification. The cell pellets are resuspended in PBS and counted with a ZI Coulter Counter. After a wash with PBS, adherent cells in the well bottoms are detached with trypsin-EDTA solution 10× (Invitrogen) diluted in PBS. The reaction is stopped with the addition of culture medium and the detached cells are counted.
ApoE was quantified by ELISA. 96 well plates (Costar) are coated with 5% of gelatine (from porcine skin, Fluka) in carbonate-bicarbonate buffer (Sigma) for 1 hour at 37° C. After removing the coating solution, 100 μl of THP-1 supernatant are added per well, diluted 5 times in buffer (PBS, 1% Top-Block (Juro), 0.1% Tween 20 (Fluka)). The incubation last 1 hour at 37° C., then the wells are washed 3 times with 200 μl of buffer. Plates are incubated for 1 hour at 37° C. with continuous stirring with the primary antibody (goat anti-human apoE IgG, Calbiochem) at a 10000-time dilution in buffer, 100 μl per well. After 3 washes, plates are incubated with the secondary antibody (rabbit anti-goat-IgG peroxidase conjugated, Sigma) diluted 5000 times, 100 μl per well, at 37° C. with shaking. Then the wells are washed 5 more times and the detection is achieved by adding 100 μl per well of o-phenylenediamine dihydrochloride (Sigma) and incubated for 15-20 minutes with shaking at room temperature. When the appropriated colour is reached, the reaction is stopped by adding 50 μl per well of 3 M sulfuric acid (Fluka) with shaking for 1 minute at room temperature. The absorbance is read at 492 nm versus 620 nm with a microplate photometer (Anthos Reader 2001).

Row | Structure (SMILES) | % ApoE Change (compound 25 μM, 1.25 nM PMA) [%] | % ApoE Change (compound 25 μM, 2.5 nM PMA) [%] | % ApoE Change (compound 50 μM, 1.25 nM PMA) [%] | % ApoE Change (compound 50 μM, 2.5 nM PMA) [%] | % ApoE Change (compound 100 μM, 1.25 nM PMA) [%] | % ApoE Change (compound 100 μM, 2.5 nM PMA) [%] | percent change in apoE secretion versus control at 25 µM (compound 25 μM, 2.5 nM PMA) [%] | percent change in apoE secretion versus control at 50 µM (compound 50 μM, 2.5 nM PMA) [%] | percent change in apoE secretion versus control at 100 µM (compound 100 μM, 2.5 nM PMA) [%] | also measured
1 | CCOc1ccc(C(CP(=O)(OCC)OCC)P(=O)(OCC)OCC)cc1 (stereo not shown) [Tetraethyl 1-(4-ethoxyphenyl)-ethylidene-1,2-bisphosphonate] | −16 | 5 | −12 | 4 | 36 | 54 | – | – | – | –
2 | CCOP(=O)(OCC)C(c1ccc(O)cc1)P(=O)(OCC)OCC [Tetraethyl 1-(4-hydroxy-phenyl)-methylidene-1,1-bisphosphonate] | – | – | – | – | – | – | -3 | -9 | 60 | percent change in apoE secretion versus control at 25 µM (compound 25 μM, 1.25 nM PMA): -13%; percent change in apoE secretion versus control at 50 µM (compound 50 μM, 1.25 nM PMA): 26%; percent change in apoE secretion versus control at 100 µM (compound 100 μM, 1.25 nM PMA): 125%
3 | CCOP(=O)(OCC)C(c1ccc(OCCN(CCC#N)c2ccccc2)cc1)P(=O)(OCC)OCC [Tetraethyl 1-(4-{2-[(2-cyano-ethyl)-phenyl-amino]-ethoxy}-phenyl)-methylidene-1,1-bisphosphonate] | – | – | – | – | – | – | 209 | 311 | 499 | percent change in apoE secretion versus control at 25 µM (compound 25 μM, 1.25 nM PMA): 276%; percent change in apoE secretion versus control at 50 µM (compound 50 μM, 1.25 nM PMA): 678%
4 | CCOP(=O)(CC(c1cccc(OCCc2ccccn2)c1)P(=O)(OCC)OCC)OCC (stereo not shown) [Tetraethyl 1-[3-(2-pyridin-2-yl-ethoxy)-phenyl]-ethylidene-1,2-bisphosphonate] | – | – | – | – | – | – | 110 | 124 | 206 | percent change in apoE secretion versus control at 25 µM (compound 25 μM, 1.25 nM PMA): 31%; percent change in apoE secretion versus control at 50 µM (compound 50 μM, 1.25 nM PMA): 51%; percent change in apoE secretion versus control at 100 µM (compound 100 μM, 1.25 nM PMA): 274%
5 | CCOP(=O)(OCC)C(c1ccc(OCCCO)cc1)P(=O)(OCC)OCC [Tetraethyl 1-[4(3-hydroxy-propoxy)-phenyl]-methylidene-1,1-bisphosphonate] | – | – | – | – | – | – | -15 | -16 | 0 | percent change in apoE secretion versus control at 25 µM (compound 25 μM, 1.25 nM PMA): -27%; percent change in apoE secretion versus control at 50 µM (compound 50 μM, 1.25 nM PMA): -21%; percent change in apoE secretion versus control at 100 µM (compound 100 μM, 1.25 nM PMA): 20%
6 | CCOP(=O)(OCC)C(c1ccc(OCCN2CCOCC2)cc1)P(=O)(OCC)OCC [Tetraethyl 1-[4-(2-N-morpholino-ethoxy)-phenyl]-methylidene-1,1-bisphosphonate] | −17 | −20 | −8 | −27 | 43 | −3 | – | – | – | –
7 | CCOP(=O)(OCC)C(c1ccc(OCCN2CCCCC2)cc1)P(=O)(OCC)OCC [Tetraethyl 1-[4-(2-N-piperidino-ethoxy)-phenyl]-methylidene-1,1-bisphosphonate] | −22 | −2 | 6 | 0 | 65 | 33 | – | – | – | –
8 | CCOP(=O)(OCC)C(c1ccc(OCCN2CCCC2)cc1)P(=O)(OCC)OCC [Tetraethyl 1-[4-(2-N-pyrrolidino-ethoxy)-phenyl]-methylidene-1,1-bisphosphonate] | −5 | 2 | 2 | 7 | 56 | 32 | – | – | – | –
9 | CCOP(=O)(OCC)C(c1ccc(OCCN2C(=O)CCC2=O)cc1)P(=O)(OCC)OCC [Tetraethyl 1-[4-(2-N-succinimido-ethoxy)-phenyl]-methylidene-1,1-bisphosphonate] | −51 | 30 | 53 | 70 | 123 | 132 | – | – | – | –
10 | CCOP(=O)(OCC)C(c1ccc(OCCc2ccccn2)cc1)P(=O)(OCC)OCC [Tetraethyl 1-[4-(2-pyridin-2-yl-ethoxy)-phenyl]-methylidene-1,1-bisphosphonate] | 57 | 38 | 133 | 73 | 363 | 145 | – | – | – | –
11 | CCOP(=O)(OCC)C(c1ccc(OCCCN2C(=O)c3ccccc3C2=O)cc1)P(=O)(OCC)OCC [Tetraethyl 1-[4-(3-N-phthalimido-propoxy)-phenyl]-methylidene-1,1-bisphosphonate] | – | – | – | – | – | – | 352 | 405 | 482 | –
12 | CCOP(=O)(CC(c1ccc(OCCCN2C(=O)c3ccccc3C2=O)cc1)P(=O)(OCC)OCC)OCC (stereo not shown) [Tetraethyl 1-[4-(3-N-phthalimidopropoxy)phenyl]-ethylidene-1,2-bisphosphonate] | – | – | – | – | – | – | 644 | 942 | – | –
13 | CCOP(=O)(OCC)C(c1ccc(OCCCc2cccnc2)cc1)P(=O)(OCC)OCC [Tetraethyl 1-[4-(3-pyridin-3-yl-propoxy)-phenyl]-methylidene-1,1-bisphosphonate] | 63 | 136 | 103 | 188 | 337 | 331 | – | – | – | –
14 | CCOP(=O)(OCC)C(c1ccc(OCc2ccc(C#N)cc2)cc1)P(=O)(OCC)OCC [Tetraethyl 1-[4-(4-cyano-benzyloxy)-phenyl]-methylidene-1,1-bisphosphonate] | 91 | 134 | 192 | 225 | 447 | 328 | – | – | – | –
15 | CCOP(=O)(CC(c1ccc(OCc2ccccn2)cc1)P(=O)(OCC)OCC)OCC (stereo not shown) [Tetraethyl 1-[4-(pyridin-2-yl-methoxy)-phenyl]-ethylidene-1,2-bisphosphonate] | – | 152 | – | 158 | – | 289 | – | – | – | –
16 | CCOP(=O)(OCC)C(c1ccc(OCc2ccccn2)cc1)P(=O)(OCC)OCC [Tetraethyl 1-[4-(pyridin-2-yl-methoxy)-phenyl]-methylidene-1,1-bisphosphonate] | 16 | 96 | 146 | 192 | 443 | 574 | – | – | – | –
17 | CCOP(=O)(OCC)C(c1ccc(OC/C=C(\C)CC/C=C(\C)CCC=C(C)C)cc1)P(=O)(OCC)OCC [Tetraethyl 1-[4-(trans, trans-3,7,11-trimethyl-dodeca-2,6,10-trienyloxy)-phenyl]-methylidene-1,1-bisphosphonate] | – | – | – | – | – | – | – | – | – | % ApoE Change (compound 2.5 μM, 1.25 nM PMA): 14%; % ApoE Change (compound 2.5 μM, 2.5 nM PMA): 27%; % ApoE Change (compound 5.0 μM, 1.25 nM PMA): 46%; % ApoE Change (compound 5.0 μM, 2.5 nM PMA): 47%; % ApoE Change (compound 10 μM, 1.25 nM PMA): 31%; % ApoE Change (compound 10 μM, 2.5 nM PMA): 40%
18 | CCOP(=O)(CC(c1ccc(OCCN(C)c2ccccn2)cc1)P(=O)(OCC)OCC)OCC (stereo not shown) [Tetraethyl 1-{4-[2-(methyl-pyridin-2-yl-amino)ethoxy]-phenyl}-ethylidene-1,2-bisphosphonate] | – | – | – | – | – | – | 110 | 124 | 206 | percent change in apoE secretion versus control at 25 µM (compound 25 μM, 1.25 nM PMA): 77%; percent change in apoE secretion versus control at 50 µM (compound 50 μM, 1.25 nM PMA): 202%; percent change in apoE secretion versus control at 100 µM (compound 100 μM, 1.25 nM PMA): 569%
